According to article PMC8222254, “Self-assembly of an anion receptor with metal-dependent kinase inhibition and potent in vitro anti-cancer properties” (Nature Communications, 2021):
Several values for one entry are separate records, joined by “and”; a condition that tells them apart may be missing. Equal entries are not always repeated.

Key:
Test in all cases: Kinase inhibition screen, cell-free 33P ATP assay at 10 μM
Assay type in all cases: biochemical
[1] = molecular target: 140 purified human kinases (Homo sapiens, UniProt Q9H422)
Experimental: (§1) [L2Cu3]^6+ and [L2Zn3]^6+ were submitted to the MRC Protein Phosphorylation and Ubiquitination Unit International Centre for Kinase Profiling (University of Dundee) and tested in duplicate (at 10 μM) against a series of 140 purified human kinases in a cell-free kinase assay using ^33P ATP[55],[56]. The kinase gene IDs from the screen were then translated into common IDs (HGNC symbol) using biomaRt package[57],[58] in R[59] and R Studio[60] and used as input to the KinMap programme.

[2] = molecular target: 140 purified human kinases (Homo sapiens, UniProt Q16816); conditions: PHK
Experimental: as §1

[3] = molecular target: 140 purified human kinases (Homo sapiens, UniProt Q16513)
Experimental: as §1

[4] = molecular target: T1, 140 purified human kinases (Homo sapiens, UniProt Q9BXA7)
T1 sequence (Q9BXA7 1-367): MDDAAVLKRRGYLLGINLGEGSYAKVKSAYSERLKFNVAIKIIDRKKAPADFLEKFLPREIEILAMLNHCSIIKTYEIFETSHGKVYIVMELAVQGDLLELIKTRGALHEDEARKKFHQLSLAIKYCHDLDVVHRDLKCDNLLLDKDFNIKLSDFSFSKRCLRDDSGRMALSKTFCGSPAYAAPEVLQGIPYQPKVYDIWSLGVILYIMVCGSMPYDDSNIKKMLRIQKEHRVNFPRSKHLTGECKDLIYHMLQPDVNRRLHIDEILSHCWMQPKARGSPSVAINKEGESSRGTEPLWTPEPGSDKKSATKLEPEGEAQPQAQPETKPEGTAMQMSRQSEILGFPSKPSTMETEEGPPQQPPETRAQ
Experimental: as §1

[5] = molecular target: 140 purified human kinases (Homo sapiens, UniProt O75582)
Experimental: as §1

[6] = molecular target: 140 purified human kinases (Homo sapiens, UniProt Q96SB4)
Experimental: as §1

[7] = molecular target: 140 purified human kinases (Homo sapiens, UniProt Q9H2X6)
Experimental: as §1

[8] = molecular target: 140 purified human kinases (Homo sapiens, UniProt Q8N4C8)
Experimental: as §1

[9] = molecular target: T2, 140 purified human kinases (Homo sapiens, UniProt O75385)
T2 sequence (O75385 1-1050): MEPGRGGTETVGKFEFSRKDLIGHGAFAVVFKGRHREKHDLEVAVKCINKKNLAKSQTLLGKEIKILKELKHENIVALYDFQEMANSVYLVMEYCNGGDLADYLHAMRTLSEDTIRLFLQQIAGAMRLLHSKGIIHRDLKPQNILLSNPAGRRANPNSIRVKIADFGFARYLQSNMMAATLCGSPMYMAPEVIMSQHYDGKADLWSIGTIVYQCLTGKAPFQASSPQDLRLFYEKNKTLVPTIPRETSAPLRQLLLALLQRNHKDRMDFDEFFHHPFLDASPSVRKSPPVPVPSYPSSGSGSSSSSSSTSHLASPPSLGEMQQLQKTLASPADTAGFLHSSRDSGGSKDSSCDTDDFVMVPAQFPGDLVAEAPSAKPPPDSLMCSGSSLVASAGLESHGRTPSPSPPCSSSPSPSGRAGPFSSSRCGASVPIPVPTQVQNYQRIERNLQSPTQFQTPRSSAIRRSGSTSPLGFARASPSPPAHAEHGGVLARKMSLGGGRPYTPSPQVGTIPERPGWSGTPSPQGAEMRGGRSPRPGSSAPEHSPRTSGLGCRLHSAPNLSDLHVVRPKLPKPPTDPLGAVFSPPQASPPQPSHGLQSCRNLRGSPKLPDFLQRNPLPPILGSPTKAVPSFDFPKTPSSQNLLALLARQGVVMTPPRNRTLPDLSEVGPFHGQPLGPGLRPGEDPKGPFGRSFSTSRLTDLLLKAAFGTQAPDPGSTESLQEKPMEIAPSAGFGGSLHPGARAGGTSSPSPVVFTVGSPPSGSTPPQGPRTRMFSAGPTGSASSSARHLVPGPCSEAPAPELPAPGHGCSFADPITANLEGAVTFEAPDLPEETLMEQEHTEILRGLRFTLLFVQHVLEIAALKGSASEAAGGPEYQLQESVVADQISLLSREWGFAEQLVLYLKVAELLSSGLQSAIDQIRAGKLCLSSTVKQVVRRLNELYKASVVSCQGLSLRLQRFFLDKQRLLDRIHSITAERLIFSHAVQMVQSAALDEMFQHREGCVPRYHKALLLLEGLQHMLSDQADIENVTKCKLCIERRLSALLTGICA
Experimental: as §1

[10] = molecular target: 140 purified human kinases (Homo sapiens, UniProt P43405); conditions: SYK
Experimental: as §1

Chain of 140 purified human kinases (Homo sapiens, UniProt Q8N4C8) (Q8N4C8 whole entry): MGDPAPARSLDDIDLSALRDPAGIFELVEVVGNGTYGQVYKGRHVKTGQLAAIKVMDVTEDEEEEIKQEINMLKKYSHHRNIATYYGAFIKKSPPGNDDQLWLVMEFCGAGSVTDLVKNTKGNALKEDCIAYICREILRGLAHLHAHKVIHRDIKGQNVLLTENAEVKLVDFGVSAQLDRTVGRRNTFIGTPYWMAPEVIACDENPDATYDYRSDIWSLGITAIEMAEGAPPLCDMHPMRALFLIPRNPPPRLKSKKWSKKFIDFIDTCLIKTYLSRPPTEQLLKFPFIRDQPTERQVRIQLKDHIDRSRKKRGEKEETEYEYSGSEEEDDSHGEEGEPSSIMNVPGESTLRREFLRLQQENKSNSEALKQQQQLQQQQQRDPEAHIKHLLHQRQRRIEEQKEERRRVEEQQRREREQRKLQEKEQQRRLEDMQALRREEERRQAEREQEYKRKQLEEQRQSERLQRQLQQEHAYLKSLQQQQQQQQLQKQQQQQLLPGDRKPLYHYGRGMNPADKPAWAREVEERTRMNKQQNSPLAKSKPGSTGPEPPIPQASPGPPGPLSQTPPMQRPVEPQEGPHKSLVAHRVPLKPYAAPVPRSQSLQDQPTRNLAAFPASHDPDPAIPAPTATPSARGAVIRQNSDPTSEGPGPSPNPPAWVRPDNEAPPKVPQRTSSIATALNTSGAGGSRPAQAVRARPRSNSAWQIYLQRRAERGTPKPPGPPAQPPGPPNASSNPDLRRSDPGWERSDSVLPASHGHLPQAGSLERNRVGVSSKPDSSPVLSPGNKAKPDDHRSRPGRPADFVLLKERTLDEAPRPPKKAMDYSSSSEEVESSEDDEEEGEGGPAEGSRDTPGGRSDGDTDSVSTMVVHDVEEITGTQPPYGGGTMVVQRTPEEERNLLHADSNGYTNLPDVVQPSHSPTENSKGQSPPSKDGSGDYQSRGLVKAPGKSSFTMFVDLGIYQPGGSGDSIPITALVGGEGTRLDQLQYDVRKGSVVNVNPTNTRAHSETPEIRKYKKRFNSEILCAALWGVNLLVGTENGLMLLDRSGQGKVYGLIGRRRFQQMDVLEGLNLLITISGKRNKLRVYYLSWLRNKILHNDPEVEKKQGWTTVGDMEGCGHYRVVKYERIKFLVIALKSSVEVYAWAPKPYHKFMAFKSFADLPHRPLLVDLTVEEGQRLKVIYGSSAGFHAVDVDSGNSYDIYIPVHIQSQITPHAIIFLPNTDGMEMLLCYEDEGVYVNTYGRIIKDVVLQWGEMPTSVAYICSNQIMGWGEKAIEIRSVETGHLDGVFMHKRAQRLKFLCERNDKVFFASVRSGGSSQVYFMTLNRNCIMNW
Chain of 140 purified human kinases (Homo sapiens, UniProt Q96SB4) (Q96SB4 whole entry): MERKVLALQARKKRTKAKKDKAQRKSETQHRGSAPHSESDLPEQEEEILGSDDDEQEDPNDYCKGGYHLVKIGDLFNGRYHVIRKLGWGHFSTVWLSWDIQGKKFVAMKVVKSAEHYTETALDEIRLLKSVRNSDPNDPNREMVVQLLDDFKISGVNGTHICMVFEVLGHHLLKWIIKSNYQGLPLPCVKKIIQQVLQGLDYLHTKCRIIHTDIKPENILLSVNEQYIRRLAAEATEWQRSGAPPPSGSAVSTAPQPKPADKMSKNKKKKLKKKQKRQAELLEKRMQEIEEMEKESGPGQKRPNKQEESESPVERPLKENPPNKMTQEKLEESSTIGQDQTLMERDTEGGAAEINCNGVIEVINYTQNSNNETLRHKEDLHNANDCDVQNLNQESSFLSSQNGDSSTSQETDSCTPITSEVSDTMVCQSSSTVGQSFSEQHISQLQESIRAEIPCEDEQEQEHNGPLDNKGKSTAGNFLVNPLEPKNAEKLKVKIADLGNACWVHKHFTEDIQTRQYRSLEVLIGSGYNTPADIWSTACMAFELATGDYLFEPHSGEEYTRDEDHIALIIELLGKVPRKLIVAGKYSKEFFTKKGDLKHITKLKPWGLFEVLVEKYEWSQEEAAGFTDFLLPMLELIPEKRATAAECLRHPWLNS
Chain of 140 purified human kinases (Homo sapiens, UniProt Q16513) (Q16513 whole entry): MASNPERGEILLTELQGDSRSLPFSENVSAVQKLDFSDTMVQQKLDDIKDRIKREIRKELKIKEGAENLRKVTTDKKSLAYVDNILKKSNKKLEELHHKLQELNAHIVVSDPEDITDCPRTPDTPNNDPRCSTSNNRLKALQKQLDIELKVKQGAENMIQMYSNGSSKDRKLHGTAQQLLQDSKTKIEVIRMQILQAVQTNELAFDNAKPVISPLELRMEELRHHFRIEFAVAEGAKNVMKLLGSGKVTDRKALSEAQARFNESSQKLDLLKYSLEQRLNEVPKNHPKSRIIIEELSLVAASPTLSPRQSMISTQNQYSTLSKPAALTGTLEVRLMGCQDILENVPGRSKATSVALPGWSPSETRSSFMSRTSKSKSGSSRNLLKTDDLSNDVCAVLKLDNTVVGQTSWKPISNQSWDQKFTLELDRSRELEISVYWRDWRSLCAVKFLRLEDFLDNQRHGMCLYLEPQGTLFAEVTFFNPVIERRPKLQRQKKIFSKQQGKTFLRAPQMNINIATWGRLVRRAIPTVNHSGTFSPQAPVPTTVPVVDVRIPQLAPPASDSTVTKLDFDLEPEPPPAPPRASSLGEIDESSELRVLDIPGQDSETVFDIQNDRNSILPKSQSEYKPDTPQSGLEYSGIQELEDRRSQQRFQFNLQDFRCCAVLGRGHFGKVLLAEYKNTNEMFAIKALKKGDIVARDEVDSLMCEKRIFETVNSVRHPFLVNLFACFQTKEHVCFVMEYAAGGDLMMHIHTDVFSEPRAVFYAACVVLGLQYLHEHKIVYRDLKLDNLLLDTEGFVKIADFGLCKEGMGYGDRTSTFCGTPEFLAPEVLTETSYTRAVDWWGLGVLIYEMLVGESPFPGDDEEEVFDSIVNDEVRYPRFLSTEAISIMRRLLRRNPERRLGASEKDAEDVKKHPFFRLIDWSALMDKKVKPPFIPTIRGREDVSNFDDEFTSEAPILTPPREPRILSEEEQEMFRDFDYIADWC
Chain of 140 purified human kinases (Homo sapiens, UniProt Q16816) (Q16816 whole entry): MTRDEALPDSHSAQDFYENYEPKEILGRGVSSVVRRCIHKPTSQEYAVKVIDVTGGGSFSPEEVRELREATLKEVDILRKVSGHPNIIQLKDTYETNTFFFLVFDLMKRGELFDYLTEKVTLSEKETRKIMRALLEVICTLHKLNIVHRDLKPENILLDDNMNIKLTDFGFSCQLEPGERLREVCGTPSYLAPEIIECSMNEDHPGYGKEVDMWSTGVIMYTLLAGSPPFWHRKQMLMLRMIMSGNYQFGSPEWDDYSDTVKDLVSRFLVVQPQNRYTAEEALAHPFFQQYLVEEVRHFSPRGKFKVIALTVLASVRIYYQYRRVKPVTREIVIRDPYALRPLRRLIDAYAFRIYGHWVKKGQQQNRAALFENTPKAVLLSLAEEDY
Chain of 140 purified human kinases (Homo sapiens, UniProt Q9H2X6) (Q9H2X6 whole entry): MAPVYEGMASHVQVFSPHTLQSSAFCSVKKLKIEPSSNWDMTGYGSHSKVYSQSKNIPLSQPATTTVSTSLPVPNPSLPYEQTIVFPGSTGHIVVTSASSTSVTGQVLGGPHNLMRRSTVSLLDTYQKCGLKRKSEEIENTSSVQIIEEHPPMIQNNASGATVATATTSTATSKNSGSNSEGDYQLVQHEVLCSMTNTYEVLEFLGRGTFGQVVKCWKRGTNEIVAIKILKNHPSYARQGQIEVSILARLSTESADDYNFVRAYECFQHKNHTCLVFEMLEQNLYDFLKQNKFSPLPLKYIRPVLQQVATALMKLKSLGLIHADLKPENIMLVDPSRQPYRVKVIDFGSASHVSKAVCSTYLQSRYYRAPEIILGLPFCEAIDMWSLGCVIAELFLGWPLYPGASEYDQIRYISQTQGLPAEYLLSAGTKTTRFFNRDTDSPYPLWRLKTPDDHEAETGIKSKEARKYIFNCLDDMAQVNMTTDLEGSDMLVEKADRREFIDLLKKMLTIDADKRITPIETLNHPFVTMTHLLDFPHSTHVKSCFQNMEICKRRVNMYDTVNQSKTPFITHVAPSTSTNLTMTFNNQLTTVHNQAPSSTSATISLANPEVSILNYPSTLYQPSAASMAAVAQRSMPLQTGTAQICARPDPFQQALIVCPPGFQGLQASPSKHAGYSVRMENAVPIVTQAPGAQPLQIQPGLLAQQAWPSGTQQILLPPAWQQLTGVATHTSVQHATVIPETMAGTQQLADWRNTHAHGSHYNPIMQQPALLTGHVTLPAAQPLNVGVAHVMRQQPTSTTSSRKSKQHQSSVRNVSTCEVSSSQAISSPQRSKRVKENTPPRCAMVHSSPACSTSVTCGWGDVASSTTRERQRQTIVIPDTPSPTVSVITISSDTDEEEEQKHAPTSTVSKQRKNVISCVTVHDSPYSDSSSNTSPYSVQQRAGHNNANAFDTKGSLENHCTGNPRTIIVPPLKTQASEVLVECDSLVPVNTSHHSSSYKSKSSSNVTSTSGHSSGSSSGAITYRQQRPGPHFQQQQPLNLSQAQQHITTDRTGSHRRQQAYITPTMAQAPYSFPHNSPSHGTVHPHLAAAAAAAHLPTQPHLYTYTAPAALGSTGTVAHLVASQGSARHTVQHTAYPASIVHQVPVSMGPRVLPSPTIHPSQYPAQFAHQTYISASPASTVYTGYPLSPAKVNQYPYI

With `[Cu+2].[Cu+2].[Cu+2].c1ccc(-c2csc(NCCN(CCNc3nc(-c4ccccn4)cs3)CCNc3nc(-c4ccccn4)cs3)n2)nc1.c1ccc(-c2csc(NCCN(CCNc3nc(-c4ccccn4)cs3)CCNc3nc(-c4ccccn4)cs3)n2)nc1` [[L2Cu3]6+] the “% Inhibition Run 1” value ([1]; HIPK3) was 56.3%, the “% Inhibition Run 2” value ([1]; HIPK3) was 58.6% and the “% Inhibition, Mean” value ([1]; HIPK3) was 57%. For the same compound, the mean % activity ([1]; HIPK3) was 43%, the “% activity” value ([1]; HIPK3, Run 1) was 43.7% and the “% activity” value ([1]; HIPK3, Run 2) was 41.4%. The “% Inhibition Run 1” value [2] was 59.9%, the “% Inhibition Run 2” value [2] was 49.3% and the “% Inhibition, Mean” value [2] was 55%. The mean % activity [2] was 45%, the “% Inhibition Run 1” value ([3]; PRK2) was 87.9% and the “% Inhibition Run 2” value ([3]; PRK2) was 85.6%. The “% Inhibition, Mean” value ([3]; PRK2) was 87%, the mean % activity ([3]; PRK2) was 13% and the “% activity” value ([3]; PRK2, Run 1) was 12.1%. For the same compound, the “% activity” value ([3]; PRK2, Run 2) was 14.4%, the “% Inhibition Run 1” value ([4]; TSSK1) was 44% and the “% Inhibition Run 2” value ([4]; TSSK1) was 46.8%. For the same compound, the “% Inhibition, Mean” value ([4]; TSSK1) was 45%, the mean % activity ([4]; TSSK1) was 55% and the “% activity” value ([4]; TSSK1, Run 1) was 56%. For the same compound, the “% activity” value ([4]; TSSK1, Run 2) was 53.2%, the “% Inhibition Run 1” value ([5]; MSK1) was 67.5% and the “% Inhibition Run 2” value ([5]; MSK1) was 74.8%. The “% Inhibition, Mean” value ([5]; MSK1) was 71%, the mean % activity ([5]; MSK1) was 29% and the “% activity” value ([5]; MSK1, Run 1) was 32.5%. The “% activity” value ([5]; MSK1, Run 2) was 25.2%, the “% Inhibition Run 1” value ([6]; SRPK1) was 58.1% and the “% Inhibition Run 2” value ([6]; SRPK1) was 50.4%. The “% Inhibition, Mean” value ([6]; SRPK1) was 54%, the mean % activity ([6]; SRPK1) was 46% and the “% activity” value ([6]; SRPK1, Run 1) was 41.9%. The “% activity” value ([6]; SRPK1, Run 2) was 49.6%, the “% Inhibition Run 1” value ([7]; HIPK2) was 50.5% and the “% Inhibition Run 2” value ([7]; HIPK2) was 45.5%. For the same compound, the “% Inhibition, Mean” value ([7]; HIPK2) was 48%, the mean % activity ([7]; HIPK2) was 52% and the “% activity” value ([7]; HIPK2, Run 1) was 49.5%. For the same compound, the “% activity” value ([7]; HIPK2, Run 2) was 54.5%, the “% Inhibition Run 1” value ([8]; MINK1) was 70% and the “% Inhibition Run 2” value ([8]; MINK1) was 78.2%. For the same compound, the “% Inhibition, Mean” value ([8]; MINK1) was 74%, the mean % activity ([8]; MINK1) was 26% and the “% activity” value ([8]; MINK1, Run 1) was 30%. The “% activity” value ([8]; MINK1, Run 2) was 21.8%, the “% Inhibition Run 1” value ([9]; ULK1) was 75.8% and the “% Inhibition Run 2” value ([9]; ULK1) was 76.3%. For the same compound, the “% Inhibition, Mean” value ([9]; ULK1) was 76%, the mean % activity ([9]; ULK1) was 24% and the “% activity” value ([9]; ULK1, Run 1) was 24.2%. The “% activity” value ([9]; ULK1, Run 2) was 23.7%, the “% Inhibition Run 1” value [10] was 88% and the “% Inhibition Run 2” value [10] was 79.4%. The “% Inhibition, Mean” value [10] was 84%, the mean % activity [10] was 16% and the “% activity” value ([10]; Run 1) was 12%. For the same compound, the “% activity” value ([10]; Run 2) was 20.6%.

In the case of `CC(=O)[O-].CC(=O)[O-].CC(=O)[O-].CC(=O)[O-].CC(=O)[O-].CC(=O)[O-].[Zn+2].[Zn+2].[Zn+2].c1ccc(-c2csc(NCCN(CCNc3nc(-c4ccccn4)cs3)CCNc3nc(-c4ccccn4)cs3)n2)nc1.c1ccc(-c2csc(NCCN(CCNc3nc(-c4ccccn4)cs3)CCNc3nc(-c4ccccn4)cs3)n2)nc1` [[L2Zn3]6+], the “% Inhibition, Mean” value ([1]; HIPK3) is reported as 15%, the mean % activity ([1]; HIPK3) is reported as 85% and the “% activity” value ([1]; HIPK3, duplicate runs) is reported as 97% and 72%. The “% Inhibition, Mean” value [2] was 64%, the mean % activity [2] was 36% and the “% activity” value ([2]; duplicate runs) was 32% and 39%. The “% Inhibition, Mean” value ([3]; PRK2) was 71%, the “% Inhibition, Run 1 / Run 2” value ([3]; PRK2) was 77% and 65% and the mean % activity ([3]; PRK2) was 29%. For the same compound, the “% activity” value ([3]; PRK2, duplicate runs) was 23% and 35%, the “% Inhibition, Mean” value ([4]; TSSK1) was 27% and the “% Inhibition, Run 1 / Run 2” value ([4]; TSSK1) was 29% and 24%. The mean % activity ([4]; TSSK1) was 73%, the “% activity” value ([4]; TSSK1, duplicate runs) was 71% and 76% and the “% Inhibition, Mean” value ([5]; MSK1) was 22%. For the same compound, the “% Inhibition, Run 1 / Run 2” value ([5]; MSK1) was 27% and 18%, the mean % activity ([5]; MSK1) was 78% and the “% activity” value ([5]; MSK1, duplicate runs) was 73% and 82%. For the same compound, the “% Inhibition, Mean” value ([6]; SRPK1) was 35%, the mean % activity ([6]; SRPK1) was 66% and the “% activity” value ([6]; SRPK1, duplicate runs) was 53% and 78%. The “% Inhibition, Mean” value ([7]; HIPK2) was 12%, the mean % activity ([7]; HIPK2) was 88% and the “% activity” value ([7]; HIPK2, duplicate runs) was 76% and 100%. For the same compound, the “% Inhibition, Mean” value ([8]; MINK1) was 67%, the “% Inhibition, Run 1 / Run 2” value ([8]; MINK1) was 72% and 62% and the mean % activity ([8]; MINK1) was 33%. For the same compound, the “% activity” value ([8]; MINK1, duplicate runs) was 28% and 38%, the “% Inhibition, Mean” value ([9]; ULK1) was 30% and the mean % activity ([9]; ULK1) was 70%. The “% activity” value ([9]; ULK1, duplicate runs) was 58% and 82%, the “% Inhibition, Mean” value [10] was 29% and the mean % activity [10] was 71%. The “% activity” value ([10]; duplicate runs) was 58% and 84%.
